In patent US10221163B2 (priority 2015, dated 2019):

How the values were obtained:
IMP-1 = IMP-1 (Serratia marcescens, UniProt P52699); experiment: biochemical; format: biochemical; settings: fluorescence assay, CCF2-FA substrate, 2 pM enzyme, 2 hours at 25° C.; read-out: IMP-1 IC50
Description: (§1) Enzyme Activity: Determination of IC50
(§2) The Class B enzyme activities were measured in the presence of the test inhibitor in a fluorescence assay against a commercially available substrate consisting of a cephalosporin core linking 7-hydroxycoumarin to fluorescein (CCF2-FA). […] In a 384-well microplate, the test inhibitor was incubated with the metallo-β-lactamase enzyme and the substrate for 2 hours at 25° C. […] The IC50 value was determined from semi-logarithmic plots of enzyme inhibition versus inhibitor concentration, with a curve generated using a 4-parameter fit.

NDM-1 = NDM-1 (Klebsiella pneumoniae, UniProt C7C422); experiment: biochemical; format: biochemical; settings: fluorescence assay, CCF2-FA substrate, 1 pM enzyme, 2 hours at 25° C.; read-out: NDM-1 IC50
Description: as §1, §2

[1] = tested on: Escherichia coli expressing NDM-1 (CLB30005, CLB30016); format: cell-based; settings: with imipenem 1 μg/ml; for Escherichia coli expressing NDM-1 (CLB30016) MITC95: 95% inhibition of bacterial growth; for Escherichia coli MITC95: NDM-1 strain, 95% inhibition of growth
Description: (§3) Antibiotic Potentiation Activity: Determination of Synergistic Concentration
(§4) The bacterial strains tested included the clinical strains Escherichia coli expressing NDM-1 (CLB30005, CLB30016), Serratia marcescens expressing IMP-1 (CL5741), and Klebsiella pneumoniae expressing VIM-1 (IHMA599644). Inhibitor activity was measured in the presence and absence of imipenem in a 384-well microplate.
(§5) The clinical strains CLB30016, CL5741 and IHMA599644 were grown on trypticase soy agar containing 5% sheep's blood. The bacteria on agar plates were incubated at 35° C. with humidity overnight. The following day, individual colonies from each clinical strain were picked and resuspended in 5 ml saline to attain an OD600 of […], for CLB30016, CL5741 and IHMA599644, respectively. These were further diluted 1:100 into 1.1×CAMHB and used to inoculate the test wells as described below.
(§6) Imipenem in 10 mM 3-(N-morpholino)propanesulfonic acid (MOPS, pH 7) was stored in single use aliquots at −80° C. […] On the day of the assay, 4 μl of antibiotic was added to 45 ul of bacteria followed by 1 μl of test compound and mixed by pipetting and with an orbital shaker. The concentration of antibiotic used in the assay was 1 μg/ml. Microplates were covered and incubated at 35° C. for 22 hours to 24 hours. At the end of the incubation, absorbance was determined using a spectrophotometer.

[2] = tested on: Klebsiella pneumoniae expressing VIM-1 (IHMA599644); format: cell-based; settings: for Klebsiella pneumoniae expressing VIM-1 (IHMA599644) MITC95: with imipenem 1 μg/ml, 95% inhibition of bacterial growth; for Klebsiella pneumoniae MITC95: VIM-1 strain IHMA599644, with imipenem 1 μg/ml, 95% inhibition of growth
Description: as §3, §4, §5, §6

[3] = tested on: Serratia marcescens expressing IMP-1 (CL5741); format: cell-based; settings: for Serratia marcescens expressing IMP-1 (CL5741) MITC95: with imipenem 1 μg/ml, 95% inhibition of bacterial growth; for Serratia marcescens MITC95: IMP-1 strain CL5741, with imipenem 1 μg/ml, 95% inhibition of growth
Description: as §3, §4, §5, §6

[4] = tested on: Pseudomonas aeruginosa efflux+ (MB9798), IMP-1; format: cell-based; design: Concentration of metallo-β-lactamase inhibitor which restores susceptibility of efflux + (MB9798) strain to imipenem: unit not given here; settings: C, D serine β-lactamase inhibitor closely related to relebactam; for P. aeruginosa expressing IMP-1, efflux + (MB9798) MITC95: concentration restoring susceptibility to imipenem at 2 μg/mL in the presence of a class A; for Concentration of metallo-β-lactamase inhibitor which restores susceptibility of efflux + (MB9798) strain to imipenem: imipenem at 2 μg/mL, in the presence of a class A
Excerpt: (§7) The strain background was Pseudomonas aeruginosa PAO1.
(§8) The strain set was then used as a pair to determine the effect of metallo-β-lactamase inhibitors of Formula I on the MIC of imipenem and/or ceftazidime. A fixed concentration of antibiotic was included in standard microbroth MIC tests, usually at the CLSI (Clinical and Laboratory Standards Institute) breakpoint concentration. A fixed amount of a class A/C beta-lactamase inhibitor was also included to inhibit the resident Pseudomonas AmpC enzyme. A serial titration of the metallo-β-lactamase inhibitor was included and the concentration of metallo-β-lactamase inhibitor which restores susceptibility of the strain to the included antibiotic was recorded. That concentration of metallo-β-lactamase inhibitor was then compared between the two strains to determine the fold difference between the efflux+ (MB9798) and efflux− (MB9799) strains. This was taken as an indication of the extent to which the MBLi is subject to efflux.

[5] = tested on: Pseudomonas aeruginosa efflux− (MB9799), IMP-1; format: cell-based; settings: C, D serine β-lactamase inhibitor closely related to relebactam; for P. aeruginosa expressing IMP-1, efflux − (MB9799) MITC95: concentration restoring susceptibility to imipenem at 2 μg/mL in the presence of a class A; for Concentration of metallo-β-lactamase inhibitor which restores susceptibility of efflux − (MB9799) strain to imipenem: imipenem at 2 μg/mL, in the presence of a class A
Excerpt: as §7, §8

Sequence of IMP-1 (P52699 whole entry, looked up, species assumed): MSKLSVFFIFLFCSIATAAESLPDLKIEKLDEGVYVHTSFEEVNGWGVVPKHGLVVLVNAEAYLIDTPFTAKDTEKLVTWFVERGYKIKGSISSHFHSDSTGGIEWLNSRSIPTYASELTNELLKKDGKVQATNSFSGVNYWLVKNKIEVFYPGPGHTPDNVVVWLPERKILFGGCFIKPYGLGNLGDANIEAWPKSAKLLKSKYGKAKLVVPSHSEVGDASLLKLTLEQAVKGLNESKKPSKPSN
Sequence of NDM-1 (C7C422 whole entry, looked up, species assumed): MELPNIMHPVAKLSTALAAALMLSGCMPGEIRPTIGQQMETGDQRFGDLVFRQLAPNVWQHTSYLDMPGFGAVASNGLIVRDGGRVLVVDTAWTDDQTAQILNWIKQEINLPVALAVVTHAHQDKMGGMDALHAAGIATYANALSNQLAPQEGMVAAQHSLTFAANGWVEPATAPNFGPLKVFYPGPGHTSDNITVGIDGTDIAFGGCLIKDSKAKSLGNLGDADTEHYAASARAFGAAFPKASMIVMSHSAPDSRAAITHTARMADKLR

Row | SMILES | IC50 (IMP-1) [nM] | IC50 (NDM-1) [nM] | Escherichia coli expressing NDM-1 (CLB30016) MITC95 [1] [µM] | Klebsiella pneumoniae expressing VIM-1 (IHMA599644) MITC95 [2] [µM] | Serratia marcescens expressing IMP-1 (CL5741) MITC95 [3] [µM] | P. aeruginosa expressing IMP-1, efflux + (MB9798) MITC95 [4] [µM] | P. aeruginosa expressing IMP-1, efflux − (MB9799) MITC95 [5] [µM] | Escherichia coli MITC95 [1] [µM] | Klebsiella pneumoniae MITC95 [2] [µM] | Serratia marcescens MITC95 [3] [µM] | Concentration of metallo-β-lactamase inhibitor which restores susceptibility of efflux + (MB9798) strain to imipenem [4] | Concentration of metallo-β-lactamase inhibitor which restores susceptibility of efflux − (MB9799) strain to imipenem [5]
1 | Nc1nc2c(-c3ccc(S(=O)(=O)N[C@@H]4CCNC4)c(S(N)(=O)=O)c3-c3nnn[nH]3)cc(F)cc2[nH]1 [Example 181, (R)-4-(2-amino-6-fluoro-1H-benzo[d]imidazol-4-yl)-N^1-(pyrrolidin-3-yl)-3-(1H-tetrazol-5-yl)benzene-1,2-disulfonamide] | 0.273 | 0.0372 | 0.3906 | 1.563 | 0.7813 | 0.3906 | 0.7813 |  |  |  |  | 
2 | N=C(N)c1nc2c(-c3ccc(S(N)(=O)=O)c(S(N)(=O)=O)c3-c3nn[nH]n3)cccc2s1 [Example 192, 4-(3,4-disulfamoyl-2-(2H-tetrazol-5-yl)phenyl)benzo[d]thiazole-2-carboximidamide] | 0.699 | 0.274 | 1.563 | 1.563 | 0.7813 | 1.563 | 0.7813 |  |  |  |  | 
3 | NCCNS(=O)(=O)c1ccc(-c2cccc(-c3nc[nH]n3)c2)c(-c2nn[nH]n2)c1S(N)(=O)=O [Example 224, N^4-(2-aminoethyl)-2-(2H-tetrazol-5-yl)-3′-(1H-1,2,4-triazol-3-yl)-[1,1′-biphenyl]-3,4-disulfonamide] | 0.412 | 0.142 | 1.563 | 3.125 | 1.563 | 1.563 | 0.7813 |  |  |  |  | 
4 | C[N+]1(CCN)CC[C@@H](NS(=O)(=O)c2ccc(-c3cccc4[nH]c(N)nc34)c(-c3nn[nH]n3)c2S(N)(=O)=O)C1.O=CO[O-] (stereo partly drawn) [Example 248, (3R)-3-{[4-(2-amino-1H-1,3-benzodiazol-4-yl)-2-sulfamoyl-3-(2H-1,2,3,4-tetrazol-5-yl)benzene]sulfonamido}-1-(2-aminoethyl)-1-methylpyrrolidin-1-ium; methaneperoxoate] | 0.147 | 0.0105 |  |  |  | 0.7813 | 0.7813 | 0.3906 | 0.7813 | 1.563 |  | 
5 | NCC(=O)NC1C=C(c2ccc(S(=O)(=O)N[C@@H]3CCNC3)c(S(N)(=O)=O)c2-c2nn[nH]n2)CCC1 (stereo partly drawn) [Example 269, 2-Amino-N-(4′-(N—((R)-pyrrolidin-3-yl)sulfamoyl)-3′-sulfamoyl-2′-(2H-tetrazol-5-yl)-3,4,5,6-tetrahydro-[1,1′-biphenyl]-3-yl)acetamide] | 4.03 | 1.17 |  |  |  | 3.125 | 1.563 | 1.563 | 3.125 | 1.563 |  | 
6 | Cn1nnc2c(-c3ccc(S(=O)(=O)N[C@H]4CCNC4)c(S(N)(=O)=O)c3-c3nn[nH]n3)cccc21 [Example 293, (S)-4-(1-methyl-1H-benzo[d][1,2,3]triazol-4-yl)-N1-(pyrrolidin-3-yl)-3-(2H-tetrazol-5-yl)benzene-1,2-disulfonamide] | 1.3 | 0.285 |  |  |  | 3.125 | 1.563 | 3.125 | 3.125 | 3.125 |  | 
7 | NC[C@H](N)CNS(=O)(=O)c1ccc(-c2cccn3ccnc23)c(-c2nn[nH]n2)c1S(N)(=O)=O [Example 374, (S)-N1-(2,3-diaminopropyl)-4-(imidazo[1,2-a]pyridin-8-yl)-3-(2H-tetrazol-5-yl)benzene-1,2-disulfonamide] | 0.278 | 0.157 |  |  |  | 1.563 | 1.563 | 0.7813 | 6.25 | 3.125 |  | 
8 | Nc1nc2c(-c3ccc(S(=O)(=O)NCC4(O)CNC4)c(S(N)(=O)=O)c3-c3nn[nH]n3)cccc2s1 [Example 387, 4-(2-amino-1,3-benzothiazol-4-yl)-N^1-[(3-hydroxyazetidin-3-yl)methyl]-3-(2H-tetrazol-5-yl)benzene-1,2-disulfonamide] | 0.244 | 0.0646 |  |  |  | 0.7813 | 1.563 | 1.563 | 6.25 | 1.563 |  | 
9 | C[N+](C)(C)CCCNS(=O)(=O)c1ccc(-c2cccc3sc(N)nc23)c(-c2nnn[nH]2)c1S(N)(=O)=O.O=C([O-])C(F)(F)F [Example 392, 3-({[4-(2-amino-1,3-benzothiazol-4-yl)-2-sulfamoyl-3-(1H-tetrazol-5-yl)phenyl]sulfonyl}amino)-N,N,N-trimethylpropan-1-aminium trifluoroacetate] | 0.221 | 0.0318 |  |  |  |  |  | 3.125 | 12.5 | 3.125 | 1.563 | 3.125
10 | C[C@H](CN)NS(=O)(=O)c1ccc(-c2cc(F)cc3[nH]c(N)nc23)c(-c2nn[nH]n2)c1S(N)(=O)=O [Example 396] | 0.221 | 0.0269 |  |  |  |  |  | 0.7813 | 3.125 | 0.3906 | 0.7813 | 1.563
